# Results from PubChem BioAssay (NCI).
#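 At the GI50, growth is halved. TGI: total growth inhibition.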
# Experiments:
# Test in all cases: NCI-60 cell line screen, 384-well format
# [1] = system: UACC-257 melanoma
# [2] = system: CAKI-1 renal
# [3] = system: MDA-MB-231 breast
# [4] = system: OVCAR-4 ovarian
# [5] = system: SN12C renal
# [6] = system: HOP-92 NSCLC
# [7] = system: NCI-H460 NSCLC
# [8] = system: SR leukemia
# [9] = system: HT29 colon
# [10] = system: HOP-62 NSCLC
# [11] = system: MOLT-4 leukemia
# [12] = system: DU-145 prostate
# [13] = system: MDA-MB-468 breast
# [14] = system: HS 578T breast
# [15] = system: HCT-116 colon
# [16] = system: UACC-62 melanoma
# [17] = system: A549 NSCLC
# [18] = system: SK-MEL-28 melanoma
# [19] = system: IGROV1 ovarian
# [20] = system: KM12 colon
# [21] = system: U251 glioblastoma
# [22] = system: NCI-H522 lung
# [23] = system: OVCAR-8 ovarian
# [24] = system: PC-3 prostate
# [25] = system: SK-MEL-2 melanoma
# [26] = system: HL-60(TB) leukemia
# [27] = system: EKVX NSCLC
# [28] = system: A498 renal
# [29] = system: TK-10 renal
# [30] = system: LOX IMVI melanoma
# [31] = system: 786-0 renal
# [32] = system: RPMI-8226 leukemia
# [33] = system: COLO 205 colon
# [34] = system: SF-295 CNS
# [35] = system: SNB-19 CNS
# [36] = system: MALME-3M melanoma
# [37] = system: RXF 393 renal
# [38] = system: SNB-75 CNS
# [39] = system: OVCAR-5 ovarian
# [40] = system: HCC-2998 colon
# [41] = system: NCI-H23 lung
# [42] = system: NCI-H322M lung
# [43] = system: SW-620 colon
# [44] = system: SF-539 CNS
# [45] = system: SK-OV-3 ovarian
# [46] = system: MDA-MB-435 melanoma
# [47] = system: T-47D breast
# [48] = system: K-562 leukemia
# [49] = system: UO-31 renal
# [50] = system: SF-268 CNS
# [51] = system: OVCAR-3 ovarian
# [52] = system: BT-549 breast
# [53] = system: HCT-15 colon
# [54] = system: CCRF-CEM leukemia
# [55] = system: MCF7 breast
# [56] = system: M14 melanoma
# [57] = system: NCI-H226 lung
# [58] = system: NCI/ADR-RES ovarian
# [59] = system: SK-MEL-5 melanoma
smiles,measurement,setting,value
CCN1CCC(Oc2c(C#N)ncc3[nH]c4ncccc4c23)CC1,GI50,[1],> 100 µM
same,TGI,[1],> 100 µM
same,GI50,[2],3.4 µM
same,TGI,[2],> 100 µM
same,GI50,[3],26.3 µM
same,TGI,[3],69.8 µM
same,GI50,[4],> 100 µM
same,TGI,[4],> 100 µM
same,GI50,[5],3.25 µM
same,TGI,[5],> 52.1 µM
same,GI50,[6],0.183 µM
same,GI50,[7],0.997 µM
same,TGI,[7],3.94 µM
same,GI50,[8],< 0.0396 µM
same,TGI,[8],0.0928 µM
same,GI50,[9],5.96 µM
same,TGI,[9],> 100 µM
same,GI50,[10],0.311 µM
same,TGI,[10],2.06 µM
same,GI50,[11],0.172 µM
same,TGI,[11],0.327 µM
same,GI50,[12],5.9 µM
same,TGI,[12],> 100 µM
same,TGI,[13],> 22.5 µM
same,GI50,[14],0.199 µM
same,TGI,[14],1.4 µM
same,GI50,[15],1.27 µM
same,TGI,[15],2.85 µM
same,GI50,[16],5.29 µM
same,TGI,[16],27.5 µM
same,GI50,[17],> 100 µM
same,TGI,[17],> 100 µM
same,GI50,[18],> 100 µM
same,TGI,[18],> 100 µM
same,GI50,[19],1.63 µM
same,TGI,[19],> 100 µM
same,GI50,[20],0.64 µM
same,TGI,[20],3.9 µM
same,GI50,[21],1.59 µM
same,TGI,[21],> 100 µM
same,GI50,[22],3.19 µM
same,TGI,[22],> 100 µM
same,GI50,[23],1.01 µM
same,TGI,[23],> 100 µM
same,GI50,[24],4.79 µM
same,TGI,[24],> 90.2 µM
same,GI50,[25],1.17 µM
same,TGI,[25],4.47 µM
same,GI50,[26],0.548 µM
same,TGI,[26],1.04 µM
same,GI50,[27],> 100 µM
same,TGI,[27],> 100 µM
same,GI50,[28],< 0.0456 µM
same,TGI,[28],0.133 µM
same,GI50,[29],0.329 µM
same,GI50,[30],1.67 µM
same,TGI,[30],> 100 µM
same,GI50,[31],2.52 µM
same,TGI,[31],> 100 µM
same,GI50,[32],0.72 µM
same,TGI,[32],1.97 µM
same,GI50,[33],2.52 µM
same,TGI,[33],5.81 µM
same,GI50,[34],0.12 µM
same,TGI,[34],0.619 µM
same,GI50,[35],4.56 µM
same,TGI,[35],> 100 µM
same,GI50,[36],9.76 µM
same,TGI,[36],> 100 µM
same,GI50,[37],0.0515 µM
same,TGI,[37],0.211 µM
same,GI50,[38],7.16 µM
same,TGI,[38],> 57.8 µM
same,GI50,[39],2.65 µM
same,TGI,[39],> 100 µM
same,GI50,[40],0.0933 µM
same,TGI,[40],0.41 µM
same,GI50,[41],0.423 µM
same,TGI,[41],18.4 µM
same,GI50,[42],0.449 µM
same,TGI,[42],> 100 µM
same,GI50,[43],2.3 µM
same,TGI,[43],5.54 µM
same,GI50,[44],0.0858 µM
same,TGI,[44],0.273 µM
same,GI50,[45],0.578 µM
same,TGI,[45],> 24 µM
same,GI50,[46],0.52 µM
same,TGI,[46],1.76 µM
same,GI50,[47],> 100 µM
same,TGI,[47],> 100 µM
same,GI50,[48],0.253 µM
same,TGI,[48],0.694 µM
same,GI50,[49],0.221 µM
same,TGI,[49],1.65 µM
same,GI50,[50],3.5 µM
same,TGI,[50],14.8 µM
same,GI50,[51],0.501 µM
same,TGI,[51],1.18 µM
same,GI50,[52],0.147 µM
same,TGI,[52],0.426 µM
same,GI50,[53],2.26 µM
same,TGI,[53],> 88.1 µM
same,GI50,[54],0.182 µM
same,TGI,[54],0.356 µM
same,GI50,[55],0.317 µM
same,TGI,[55],> 100 µM
same,GI50,[56],0.398 µM
same,TGI,[56],1.65 µM
same,GI50,[57],> 23.5 µM
same,TGI,[57],> 100 µM
same,GI50,[58],0.13 µM
same,TGI,[58],0.438 µM
same,GI50,[59],2.61 µM
same,TGI,[59],> 100 µM
